{"source": "ChEMBL document CHEMBL1201862", "about": "“PubChem BioAssay data set” (2004)", "key": {"Streptokinase A": {"target": "T1, Streptokinase A (Streptococcus pyogenes serotype M1, UniProt P10520)", "T1 sequence (P10520 whole entry)": "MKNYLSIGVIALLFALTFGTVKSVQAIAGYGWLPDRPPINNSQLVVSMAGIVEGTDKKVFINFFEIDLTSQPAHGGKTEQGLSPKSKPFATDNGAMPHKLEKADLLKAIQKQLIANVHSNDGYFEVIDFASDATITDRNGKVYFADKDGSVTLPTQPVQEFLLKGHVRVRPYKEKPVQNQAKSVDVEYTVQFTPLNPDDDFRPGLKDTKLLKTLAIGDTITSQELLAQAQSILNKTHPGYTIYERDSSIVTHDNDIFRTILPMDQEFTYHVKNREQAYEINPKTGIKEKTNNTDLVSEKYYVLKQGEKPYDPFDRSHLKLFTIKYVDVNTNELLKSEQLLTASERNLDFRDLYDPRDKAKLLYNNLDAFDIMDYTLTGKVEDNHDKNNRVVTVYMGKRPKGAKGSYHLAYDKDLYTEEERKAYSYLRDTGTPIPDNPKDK", "assay": "S. pyogenes streptokinase expression inhibitors, potency, dose response, plasminogen activation absorbance, OD405 (AID 1914);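 also: secreted streptokinase activity via plasminogen activation per viability signal from cell pellet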", "assay_type": "functional, Streptococcus pyogenes M1 GAS"}, "[1]": {"target": "Induced myeloid leukemia cell differentiation protein Mcl-1 (Homo sapiens, UniProt Q07820)", "sequence (Q07820 whole entry)": "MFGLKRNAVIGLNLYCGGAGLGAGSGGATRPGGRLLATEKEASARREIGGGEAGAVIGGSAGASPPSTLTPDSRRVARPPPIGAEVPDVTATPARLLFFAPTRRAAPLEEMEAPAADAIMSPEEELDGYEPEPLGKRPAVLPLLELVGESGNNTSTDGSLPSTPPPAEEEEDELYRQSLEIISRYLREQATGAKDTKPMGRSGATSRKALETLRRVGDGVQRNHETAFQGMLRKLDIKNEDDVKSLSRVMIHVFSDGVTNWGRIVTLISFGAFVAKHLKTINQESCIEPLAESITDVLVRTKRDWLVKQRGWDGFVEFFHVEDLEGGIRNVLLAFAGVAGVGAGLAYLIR", "assay_type": "functional"}, "Streptococcus": {"system": "Streptococcus", "assay": "Group A Streptococcus viability loss, dose response, counter-screen for streptokinase expression inhibitor project, luminescence, BacTiterGlo (AID 1915);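 also: potency for reduction of bacterial viability or growth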", "assay_type": "functional, organism-based"}, "[2]": {"target": "T2, Rac GTPase-activating protein 1 (Homo sapiens, UniProt Q9H0H5)", "T2 sequence (Q9H0H5 whole entry)": "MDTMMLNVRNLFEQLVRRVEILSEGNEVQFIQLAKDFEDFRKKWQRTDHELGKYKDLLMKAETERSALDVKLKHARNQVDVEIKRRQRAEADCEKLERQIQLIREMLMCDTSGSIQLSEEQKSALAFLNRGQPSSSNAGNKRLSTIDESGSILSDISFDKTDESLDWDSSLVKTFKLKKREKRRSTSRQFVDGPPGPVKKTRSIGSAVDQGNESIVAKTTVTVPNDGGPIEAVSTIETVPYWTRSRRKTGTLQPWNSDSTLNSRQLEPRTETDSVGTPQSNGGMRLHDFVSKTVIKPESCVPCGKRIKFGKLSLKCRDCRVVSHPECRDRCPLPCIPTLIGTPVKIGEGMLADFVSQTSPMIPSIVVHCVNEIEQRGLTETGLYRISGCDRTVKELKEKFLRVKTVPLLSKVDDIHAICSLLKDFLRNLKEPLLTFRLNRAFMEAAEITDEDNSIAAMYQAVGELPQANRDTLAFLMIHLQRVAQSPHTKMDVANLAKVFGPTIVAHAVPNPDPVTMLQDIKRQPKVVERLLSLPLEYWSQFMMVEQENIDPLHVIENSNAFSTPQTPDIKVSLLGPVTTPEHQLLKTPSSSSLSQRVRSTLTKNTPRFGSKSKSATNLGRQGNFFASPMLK", "assay": "MgcRacGAP GTPase-activating activity inhibitors, confirmation, biochemical, ADP Hunter fluorescence, primary and confirmatory (AID 624330)", "assay_type": "functional"}, "H9c2": {"system": "H9c2", "assay": "cells", "assay_type": "functional, cell-based", "conditions": "Rattus norvegicus, H9c2, Myocardium"}, "[3]": {"target": "Eukaryotic translation initiation factor 4E (Mus musculus, UniProt P63073)", "sequence (P63073 whole entry)": "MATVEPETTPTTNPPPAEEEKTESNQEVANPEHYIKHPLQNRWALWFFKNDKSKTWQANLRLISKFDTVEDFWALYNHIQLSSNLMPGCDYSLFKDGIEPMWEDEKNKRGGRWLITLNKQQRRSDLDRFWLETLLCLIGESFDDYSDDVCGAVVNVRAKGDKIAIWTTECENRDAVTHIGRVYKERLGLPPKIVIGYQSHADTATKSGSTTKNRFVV", "assay": "eIF4E–eIF4G protein interaction inhibitors, dose response, biochemical, TR-FRET (AID 855);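 also: potency for disrupting eIF4E binding to eIF4GI seen as loss of FRET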", "assay_type": "functional"}, "Cytochrome P450 1A2": {"target": "T3, Cytochrome P450 1A2 (Homo sapiens, UniProt P05177)", "T3 sequence (P05177 whole entry)": "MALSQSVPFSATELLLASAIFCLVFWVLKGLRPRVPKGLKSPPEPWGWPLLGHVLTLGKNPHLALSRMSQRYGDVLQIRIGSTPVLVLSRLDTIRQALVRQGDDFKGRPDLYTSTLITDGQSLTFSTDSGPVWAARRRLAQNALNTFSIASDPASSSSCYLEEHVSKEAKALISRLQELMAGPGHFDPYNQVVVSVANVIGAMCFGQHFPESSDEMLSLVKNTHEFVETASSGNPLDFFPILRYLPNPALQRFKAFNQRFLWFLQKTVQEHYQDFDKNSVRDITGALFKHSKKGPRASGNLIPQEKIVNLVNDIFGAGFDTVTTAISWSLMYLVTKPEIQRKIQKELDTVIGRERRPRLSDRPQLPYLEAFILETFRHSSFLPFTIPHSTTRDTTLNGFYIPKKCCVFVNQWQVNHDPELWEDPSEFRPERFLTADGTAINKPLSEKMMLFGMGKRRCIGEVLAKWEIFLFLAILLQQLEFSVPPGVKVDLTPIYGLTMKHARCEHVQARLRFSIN"}, "Coagulation factor XII": {"target": "T4, Coagulation factor XII (Homo sapiens, UniProt P00748)", "T4 sequence (P00748 whole entry)": "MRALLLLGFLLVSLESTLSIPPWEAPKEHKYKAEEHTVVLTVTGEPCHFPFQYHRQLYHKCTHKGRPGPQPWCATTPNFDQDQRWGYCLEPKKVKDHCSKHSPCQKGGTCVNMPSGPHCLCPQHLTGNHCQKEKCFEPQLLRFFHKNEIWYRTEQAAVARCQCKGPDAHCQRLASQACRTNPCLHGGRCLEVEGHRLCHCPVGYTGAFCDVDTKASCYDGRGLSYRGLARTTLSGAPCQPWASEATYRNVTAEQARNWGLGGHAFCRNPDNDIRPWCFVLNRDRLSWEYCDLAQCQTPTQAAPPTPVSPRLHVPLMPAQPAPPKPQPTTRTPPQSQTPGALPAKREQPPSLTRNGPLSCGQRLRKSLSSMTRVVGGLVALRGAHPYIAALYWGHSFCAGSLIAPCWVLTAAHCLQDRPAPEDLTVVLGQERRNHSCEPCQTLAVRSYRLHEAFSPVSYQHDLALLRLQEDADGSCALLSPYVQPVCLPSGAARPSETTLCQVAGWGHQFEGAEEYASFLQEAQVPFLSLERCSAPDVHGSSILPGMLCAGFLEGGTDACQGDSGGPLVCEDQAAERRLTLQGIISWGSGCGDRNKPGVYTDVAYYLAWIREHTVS", "assay_type": "functional"}, "Leucine aminopeptidase": {"target": "T5, Leucine aminopeptidase (Plasmodium falciparum 3D7, UniProt Q8IL11)", "T5 sequence (Q8IL11 whole entry)": "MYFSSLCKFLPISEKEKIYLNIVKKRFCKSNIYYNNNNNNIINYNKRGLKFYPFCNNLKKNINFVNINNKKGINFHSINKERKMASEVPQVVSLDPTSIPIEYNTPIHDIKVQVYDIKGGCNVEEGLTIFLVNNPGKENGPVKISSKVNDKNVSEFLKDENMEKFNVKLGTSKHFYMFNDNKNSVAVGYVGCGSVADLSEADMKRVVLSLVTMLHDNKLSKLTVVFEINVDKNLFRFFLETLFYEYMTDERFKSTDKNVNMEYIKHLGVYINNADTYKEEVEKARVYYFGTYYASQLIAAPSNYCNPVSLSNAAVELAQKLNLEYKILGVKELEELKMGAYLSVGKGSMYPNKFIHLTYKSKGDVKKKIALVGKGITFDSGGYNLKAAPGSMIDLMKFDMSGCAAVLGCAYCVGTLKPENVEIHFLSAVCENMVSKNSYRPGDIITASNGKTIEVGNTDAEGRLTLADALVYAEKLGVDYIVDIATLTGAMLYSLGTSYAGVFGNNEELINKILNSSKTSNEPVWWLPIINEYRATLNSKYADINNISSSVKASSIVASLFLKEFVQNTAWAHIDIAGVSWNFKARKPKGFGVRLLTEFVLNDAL", "assay": "P. falciparum M17LAP inhibitors, primary screen, biochemical, fluorogenic H-Leu-NHMec substrate, 1536-well (AID 1619)", "assay_type": "functional"}, "Large T antigen": {"target": "Large T antigen (Simian virus 40, UniProt P03070)", "sequence (P03070 whole entry)": "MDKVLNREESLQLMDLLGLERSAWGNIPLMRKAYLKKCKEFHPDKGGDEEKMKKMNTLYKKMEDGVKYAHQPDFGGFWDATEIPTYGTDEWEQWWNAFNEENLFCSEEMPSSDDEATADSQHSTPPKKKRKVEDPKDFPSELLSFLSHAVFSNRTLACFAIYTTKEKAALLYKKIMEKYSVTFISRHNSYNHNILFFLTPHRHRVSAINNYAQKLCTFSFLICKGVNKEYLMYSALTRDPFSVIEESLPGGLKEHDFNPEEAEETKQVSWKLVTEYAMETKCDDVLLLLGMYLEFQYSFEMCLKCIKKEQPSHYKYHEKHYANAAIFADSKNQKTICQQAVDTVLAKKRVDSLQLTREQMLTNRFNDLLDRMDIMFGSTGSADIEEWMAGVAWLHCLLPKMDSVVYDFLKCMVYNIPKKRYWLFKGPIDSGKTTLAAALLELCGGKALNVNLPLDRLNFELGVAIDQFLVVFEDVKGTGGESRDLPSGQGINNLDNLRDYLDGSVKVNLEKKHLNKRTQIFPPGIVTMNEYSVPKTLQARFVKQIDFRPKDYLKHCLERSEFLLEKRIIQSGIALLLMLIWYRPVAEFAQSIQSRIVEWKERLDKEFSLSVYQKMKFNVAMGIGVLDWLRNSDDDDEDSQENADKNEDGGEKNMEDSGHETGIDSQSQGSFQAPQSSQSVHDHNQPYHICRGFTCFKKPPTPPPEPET", "assay_type": "functional, Betapolyomavirus macacae"}, "[4]": {"target": "T6, Corticotropin-releasing factor receptor 2/Corticotropin-releasing factor-binding protein (Homo sapiens, UniProt P24387+Q13324)", "T6 sequence (Q13324 whole entry)": "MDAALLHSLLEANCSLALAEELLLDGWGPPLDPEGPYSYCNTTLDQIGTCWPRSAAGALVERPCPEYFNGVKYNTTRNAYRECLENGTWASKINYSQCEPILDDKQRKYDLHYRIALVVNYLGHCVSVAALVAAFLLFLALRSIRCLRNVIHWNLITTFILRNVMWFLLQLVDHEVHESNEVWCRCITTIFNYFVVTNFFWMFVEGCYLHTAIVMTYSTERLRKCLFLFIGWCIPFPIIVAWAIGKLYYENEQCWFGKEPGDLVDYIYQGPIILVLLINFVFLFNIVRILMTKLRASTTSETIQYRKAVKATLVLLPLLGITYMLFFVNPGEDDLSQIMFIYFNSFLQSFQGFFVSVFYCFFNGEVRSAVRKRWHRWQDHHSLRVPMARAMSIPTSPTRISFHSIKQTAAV", "T6 sequence (P24387 whole entry)": "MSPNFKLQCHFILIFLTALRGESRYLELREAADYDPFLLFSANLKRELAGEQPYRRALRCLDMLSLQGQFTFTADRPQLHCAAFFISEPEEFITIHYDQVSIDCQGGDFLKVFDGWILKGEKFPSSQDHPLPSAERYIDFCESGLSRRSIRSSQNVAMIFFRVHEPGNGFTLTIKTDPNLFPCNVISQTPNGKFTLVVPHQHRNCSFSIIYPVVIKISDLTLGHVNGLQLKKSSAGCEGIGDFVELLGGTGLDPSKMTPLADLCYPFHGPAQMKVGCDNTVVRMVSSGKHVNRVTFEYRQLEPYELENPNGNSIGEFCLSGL", "assay": "activators of CRF receptor 2 with binding protein – uHTS hits, confirmation (AID 602473)", "assay_type": "functional", "conditions": "read-out: EC50_Mean"}}, "note": "The source made the active and inactive calls.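 For AC50 in this document: PubChem cytochrome P450 panel assay, CYP1A2 panel member.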"}
{"smiles": "Nc1ccc2[nH]c(-c3ccc(Cl)cc3)nc2c1", "values": [{"measurement": "EC50", "setting": "Streptokinase A", "value": "> 150 µM (not active)"}, {"measurement": "IC50", "setting": "[1]", "value": "8.16 µM (not active)"}, {"measurement": "EC50", "setting": "Streptococcus", "value": "> 150 µM (not active)"}, {"measurement": "IC50", "setting": "[2]", "value": "37.8 µM (active)"}]}
{"smiles": "CC(NC(=O)c1cc2c(=O)n(C)c3ccccc3c2n1C)c1ccc2c(c1)OCCO2", "note": "(stereo unspecified)", "values": [{"measurement": "IC50", "setting": "H9c2", "value": "> 79 µM (inactive)"}]}
{"smiles": "Cc1ccc(NS(=O)(=O)c2cc(-c3nnc(O)c4ccccc34)ccc2C)cc1", "values": [{"measurement": "IC50", "setting": "H9c2", "value": "14.7 µM (active)"}]}
{"smiles": "CC(NC(=O)c1ccc(Cn2cc([N+](=O)[O-])cn2)o1)c1ccccc1", "note": "(stereo unspecified)", "values": [{"measurement": "IC50", "setting": "[3]", "value": "> 64 µM (inactive)"}, {"measurement": "AC50", "setting": "Cytochrome P450 1A2", "value": "17.8 µM (inconclusive)"}]}
{"smiles": "FC(F)C(F)(F)C(F)(F)C(F)(F)c1cc(-c2ccccc2)n[nH]1", "values": [{"measurement": "IC50", "setting": "Coagulation factor XII", "value": "> 50 µM (inactive)"}]}
{"smiles": "OC1=C2C(=Nc3nc(S)nc(O)c3C2c2ccc(Br)cc2)CCC1", "note": "(stereo unspecified)", "values": [{"measurement": "IC50", "setting": "Leucine aminopeptidase", "value": "16.7 µM (active)"}, {"measurement": "IC50", "setting": "Large T antigen", "value": "48.1 µM (active)"}, {"measurement": "IC50", "setting": "[3]", "value": "> 64 µM (inactive)"}]}
{"smiles": "O=C(CCc1nc(O)c2ccccc2n1)OCc1nnc(-c2ccccc2)o1", "values": [{"measurement": "IC50", "setting": "H9c2", "value": "13 µM (active)"}]}
{"smiles": "Cc1ccc([N+](=O)[O-])cc1-c1ccc2cccc(C)c2n1", "values": [{"measurement": "IC50", "setting": "[3]", "value": "> 64 µM (inactive)"}]}
{"smiles": "CC(C)(C)OC(=O)NCc1ccc(NC(=O)c2[nH]cnc2C(=O)NCCCCCCNC(=O)c2nc[nH]c2C(=O)Nc2ccc(CNC(=O)OC(C)(C)C)cc2)cc1", "values": [{"measurement": "IC50", "setting": "H9c2", "value": "> 79 µM (inactive)"}]}
{"smiles": "Cc1cccc2cc(/C=N/NC(=O)c3ccccc3O)c(Cl)nc12", "values": [{"measurement": "IC50", "setting": "[1]", "value": "5.52 µM (active)"}, {"measurement": "EC50", "setting": "[4]", "value": "> 53 µM (inactive)"}]}
{"smiles": "Cn1c(SCC(=O)N/N=C/c2ccc(O)c(O)c2)nc2ccccc21", "values": [{"measurement": "IC50", "setting": "Large T antigen", "value": "3.29 µM (active)"}]}
{"smiles": "CCN1C(=O)[C@H]2[C@@H](c3ccc(-c4ccc(C(C)=O)cc4)cc3)N[C@@](C)(C(=O)OC)[C@H]2C1=O", "values": [{"measurement": "IC50", "setting": "H9c2", "value": "> 79 µM (inactive)"}]}
{"smiles": "CC(=O)Nc1sc(N/N=C\\c2ccco2)nc1-c1cccs1", "values": [{"measurement": "IC50", "setting": "Large T antigen", "value": "50.8 µM (active)"}, {"measurement": "IC50", "setting": "[1]", "value": "5.23 µM (active)"}]}
